Assay results reported in the NIST ThermoML archive (doi:10.1016/j.jct.2016.03.026).
Values joined by “and” are separate entries in the source; they are usually repeats but may differ in a detail not shown here. Identical values can stand only once.

Experiment: xn = mol fraction of the nth substance listed
Details: Fluid (supercritical or subcritical phases), Frequency=5 MHz, Pulse-echo method

O=C=O [carbon dioxide] + CO
Details | speed of sound
313.15 K, 90000 kPa, x1 = 0.97 | 980.1 m/s
313.15 K, 100110 kPa, x1 = 0.97 | 1019.5 m/s
313.15 K, 109900 kPa, x1 = 0.97 | 1055.1 m/s
313.15 K, 120040 kPa, x1 = 0.97 | 1089.6 m/s
313.15 K, 140110 kPa, x1 = 0.97 | 1152.5 m/s
313.15 K, 159960 kPa, x1 = 0.97 | 1208.8 m/s
313.15 K, 179840 kPa, x1 = 0.97 | 1260.7 m/s
323.14 K, 24960 kPa, x1 = 0.925 | 536.3 m/s and 537.4 m/s
323.14 K, 24980 kPa, x1 = 0.925 | 537.5 m/s
323.14 K, 25000 kPa, x1 = 0.925 | 537.5 m/s
323.14 K, 29980 kPa, x1 = 0.925 | 591.2 m/s
323.14 K, 29990 kPa, x1 = 0.925 | 591.2 m/s and 590.7 m/s and 591.5 m/s
323.14 K, 34960 kPa, x1 = 0.925 | 636.5 m/s and 637.2 m/s
323.14 K, 34980 kPa, x1 = 0.925 | 637.4 m/s
323.14 K, 34990 kPa, x1 = 0.925 | 637.5 m/s
323.14 K, 39980 kPa, x1 = 0.925 | 678 m/s and 677.9 m/s
323.14 K, 39990 kPa, x1 = 0.925 | 678.6 m/s
323.14 K, 40000 kPa, x1 = 0.925 | 678.2 m/s
323.14 K, 44980 kPa, x1 = 0.925 | 714.6 m/s and 714.8 m/s
323.14 K, 45000 kPa, x1 = 0.925 | 714.7 m/s
323.14 K, 49960 kPa, x1 = 0.925 | 748 m/s
323.14 K, 49980 kPa, x1 = 0.925 | 748.4 m/s and 748.2 m/s
323.14 K, 50000 kPa, x1 = 0.925 | 748.4 m/s
323.14 K, 54960 kPa, x1 = 0.925 | 779.2 m/s
323.14 K, 54980 kPa, x1 = 0.925 | 779.1 m/s
323.14 K, 55000 kPa, x1 = 0.925 | 779.3 m/s
323.14 K, 55010 kPa, x1 = 0.925 | 779.4 m/s
323.14 K, 59980 kPa, x1 = 0.925 | 807.9 m/s and 808.1 m/s
323.14 K, 59990 kPa, x1 = 0.925 | 808.2 m/s
323.14 K, 60030 kPa, x1 = 0.925 | 808.2 m/s
323.14 K, 64970 kPa, x1 = 0.925 | 835.2 m/s and 835.3 m/s and 835.1 m/s
323.14 K, 64990 kPa, x1 = 0.925 | 835.4 m/s
323.14 K, 69970 kPa, x1 = 0.925 | 860.9 m/s and 860.8 m/s
323.14 K, 69980 kPa, x1 = 0.925 | 861 m/s
323.14 K, 69990 kPa, x1 = 0.925 | 860.9 m/s
323.14 K, 74950 kPa, x1 = 0.925 | 885 m/s
323.14 K, 74990 kPa, x1 = 0.925 | 885.2 m/s
323.14 K, 75000 kPa, x1 = 0.925 | 885.4 m/s
323.14 K, 75060 kPa, x1 = 0.925 | 885.5 m/s
323.14 K, 79970 kPa, x1 = 0.925 | 908.3 m/s
323.14 K, 79990 kPa, x1 = 0.925 | 908.5 m/s and 908.4 m/s
323.14 K, 80000 kPa, x1 = 0.925 | 908.4 m/s
323.14 K, 89990 kPa, x1 = 0.925 | 951.7 m/s
323.14 K, 90000 kPa, x1 = 0.925 | 951.8 m/s and 952 m/s
323.14 K, 99950 kPa, x1 = 0.925 | 991.5 m/s
323.14 K, 100000 kPa, x1 = 0.925 | 992.1 m/s
323.14 K, 100010 kPa, x1 = 0.925 | 991.8 m/s and 991.7 m/s
323.14 K, 109960 kPa, x1 = 0.925 | 1028.8 m/s
323.14 K, 109980 kPa, x1 = 0.925 | 1029.1 m/s and 1028.9 m/s
323.14 K, 109990 kPa, x1 = 0.925 | 1029 m/s
323.14 K, 119970 kPa, x1 = 0.925 | 1063.9 m/s and 1063.8 m/s
323.14 K, 119990 kPa, x1 = 0.925 | 1063.9 m/s
323.14 K, 129960 kPa, x1 = 0.925 | 1096.8 m/s
323.14 K, 129980 kPa, x1 = 0.925 | 1096.8 m/s
323.14 K, 129990 kPa, x1 = 0.925 | 1096.8 m/s
323.14 K, 130020 kPa, x1 = 0.925 | 1096.9 m/s
323.14 K, 139960 kPa, x1 = 0.925 | 1128 m/s
323.14 K, 139990 kPa, x1 = 0.925 | 1128 m/s and 1128.1 m/s
323.14 K, 140000 kPa, x1 = 0.925 | 1128.1 m/s
323.14 K, 149960 kPa, x1 = 0.925 | 1157.6 m/s
323.14 K, 149980 kPa, x1 = 0.925 | 1157.7 m/s
323.14 K, 149990 kPa, x1 = 0.925 | 1157.7 m/s
323.14 K, 150010 kPa, x1 = 0.925 | 1157.8 m/s
323.14 K, 159990 kPa, x1 = 0.925 | 1186.2 m/s
323.14 K, 160000 kPa, x1 = 0.925 | 1187 m/s
323.14 K, 160010 kPa, x1 = 0.925 | 1186 m/s
323.14 K, 160050 kPa, x1 = 0.925 | 1186.2 m/s
323.14 K, 169940 kPa, x1 = 0.925 | 1213.1 m/s
323.14 K, 169980 kPa, x1 = 0.925 | 1213.1 m/s and 1213.3 m/s
323.14 K, 170010 kPa, x1 = 0.925 | 1213.2 m/s
323.14 K, 179960 kPa, x1 = 0.925 | 1239.4 m/s
323.14 K, 180000 kPa, x1 = 0.925 | 1239.1 m/s and 1239.5 m/s
323.14 K, 180100 kPa, x1 = 0.925 | 1239.2 m/s
323.14 K, 189980 kPa, x1 = 0.925 | 1263.9 m/s
323.14 K, 190000 kPa, x1 = 0.925 | 1264.3 m/s
323.14 K, 190010 kPa, x1 = 0.925 | 1264.5 m/s
323.14 K, 190050 kPa, x1 = 0.925 | 1264.6 m/s
323.15 K, 24960 kPa, x1 = 0.8502 | 549.5 m/s
323.15 K, 25000 kPa, x1 = 0.7534 | 585.5 m/s
323.15 K, 29950 kPa, x1 = 0.7534 | 635.7 m/s
323.15 K, 30020 kPa, x1 = 0.8502 | 602.8 m/s
323.15 K, 35040 kPa, x1 = 0.7534 | 680.4 m/s
323.15 K, 35100 kPa, x1 = 0.8502 | 648.9 m/s
323.15 K, 40000 kPa, x1 = 0.7534 | 719.1 m/s
323.15 K, 40050 kPa, x1 = 0.8502 | 688.4 m/s
323.15 K, 45010 kPa, x1 = 0.8502 | 724.5 m/s
323.15 K, 45070 kPa, x1 = 0.7534 | 755 m/s
323.15 K, 49920 kPa, x1 = 0.8502 | 757.3 m/s
323.15 K, 50420 kPa, x1 = 0.7534 | 789.8 m/s
323.15 K, 55040 kPa, x1 = 0.8502 | 788.7 m/s
323.15 K, 55120 kPa, x1 = 0.7534 | 818.2 m/s
323.15 K, 59980 kPa, x1 = 0.8502 | 817.2 m/s
323.15 K, 60110 kPa, x1 = 0.7534 | 846.6 m/s
323.15 K, 64840 kPa, x1 = 0.8502 | 843.5 m/s
323.15 K, 65810 kPa, x1 = 0.7534 | 876.8 m/s
323.15 K, 69880 kPa, x1 = 0.8502 | 869.3 m/s
323.15 K, 70220 kPa, x1 = 0.7534 | 899.1 m/s
323.15 K, 75110 kPa, x1 = 0.8502 | 894.6 m/s
323.15 K, 75220 kPa, x1 = 0.7534 | 923.1 m/s
323.15 K, 80180 kPa, x1 = 0.8502 | 918 m/s
323.15 K, 89680 kPa, x1 = 0.8502 | 959.3 m/s
323.15 K, 90000 kPa, x1 = 0.7534 | 988.1 m/s
323.15 K, 99900 kPa, x1 = 0.8502 | 1000.3 m/s
323.15 K, 100230 kPa, x1 = 0.7534 | 1029 m/s
323.15 K, 109760 kPa, x1 = 0.8502 | 1037.3 m/s
323.15 K, 109960 kPa, x1 = 0.7534 | 1065.3 m/s
323.15 K, 119510 kPa, x1 = 0.8502 | 1071.6 m/s
323.15 K, 120580 kPa, x1 = 0.7534 | 1102.5 m/s
323.15 K, 139890 kPa, x1 = 0.8502 | 1137.2 m/s
323.15 K, 140520 kPa, x1 = 0.7534 | 1166.6 m/s
323.15 K, 160410 kPa, x1 = 0.7534 | 1224.7 m/s
323.15 K, 180460 kPa, x1 = 0.7534 | 1278.6 m/s
323.16 K, 69980 kPa, x1 = 0.9803 | 855.3 m/s
323.16 K, 74960 kPa, x1 = 0.9803 | 879.8 m/s
323.16 K, 79950 kPa, x1 = 0.9803 | 903.2 m/s
323.16 K, 89640 kPa, x1 = 0.9803 | 945.6 m/s
323.16 K, 99690 kPa, x1 = 0.9803 | 986.1 m/s
323.16 K, 110360 kPa, x1 = 0.9803 | 1025.6 m/s
323.16 K, 120030 kPa, x1 = 0.9803 | 1059.8 m/s
323.16 K, 129970 kPa, x1 = 0.9803 | 1092.5 m/s
323.16 K, 140230 kPa, x1 = 0.9803 | 1124.5 m/s
323.16 K, 150140 kPa, x1 = 0.9803 | 1153.8 m/s
